One series addresses T1, CYP2C8 (Homo sapiens, UniProt P10632).
T1 sequence (P10632 1-490): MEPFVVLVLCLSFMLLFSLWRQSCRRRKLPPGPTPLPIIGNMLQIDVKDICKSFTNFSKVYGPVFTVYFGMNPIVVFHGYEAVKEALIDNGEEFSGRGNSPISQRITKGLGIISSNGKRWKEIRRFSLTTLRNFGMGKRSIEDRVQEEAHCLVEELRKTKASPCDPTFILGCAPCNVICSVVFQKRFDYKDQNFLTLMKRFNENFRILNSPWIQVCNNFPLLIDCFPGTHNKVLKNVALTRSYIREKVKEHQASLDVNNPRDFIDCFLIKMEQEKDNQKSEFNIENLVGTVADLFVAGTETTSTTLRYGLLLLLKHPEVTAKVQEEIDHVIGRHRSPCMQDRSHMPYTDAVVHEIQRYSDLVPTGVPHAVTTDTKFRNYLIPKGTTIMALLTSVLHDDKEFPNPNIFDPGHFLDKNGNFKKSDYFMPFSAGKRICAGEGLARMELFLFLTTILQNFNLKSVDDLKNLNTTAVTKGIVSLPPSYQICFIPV
Put plainly: Inhibition of CYP2C8-catalyzed rosiglitazone 5-hydroxylation in human liver microsomes. Further details: incubation mixtures containing pooled human liver microsomes (HLMs, XTreme 200, XenoTech); tissue XenoTech XTreme 200; host or cells: pooled human liver microsomes. In kind it is in vitro ADME. From the text: We used HLMs to determine the mechanisms and constants (Ki values) for […] A inhibition of CYP1A2, CYP2B6, CYP2C8, CYP2C9 and CYP3A. […] The substrates were used at concentrations approximately near to their respective Km values. […] The other conditions were the same as in the cytochrome P450 inhibition study. […] Phenomenex, Torrance, CA, USA) and analyzed using a Shimadzu LCMS 8060 triple-quadrupole mass spectrometer coupled with a Nexera X2 ultra high-performance liquid chromatography system (Shimadzu, Kyoto, Japan) equipped with an electrospray ionization interface. The mobile phase consisted of 0.1% formic acid in water (A) and 0.1% formic acid in acetonitrile (B). […] The flow rate was 0.2 mL/min. Electrospray ionization was performed in positive-ion mode at 4000 V or in negative-ion mode at -3500 V. The optimum operating conditions were determined as follows: vaporizer temperature, 300 °C; capillary temperature, 350 °C; collision gas (argon) pressure, 1.5 mTorr. Quantitation was conducted in selected reaction monitoring (SRM) modes with the precursor-to-product ion transition for each metabolite (Table 1 and Table 2). We analyzed the data with Shimadzu LabSolution LC-MS software. The IC50 values were calculated by WinNonlin software (Pharsight, Mountain View, CA, USA). […]
(In general: Liver microsomes are vesicles of endoplasmic reticulum, rich in cytochrome P450 enzymes.)

The target in another series is CYP2C9 (Homo sapiens, UniProt P11712). The conditions noted are these: compared with diclofenac hydroxylase inhibition; S-mephenytoin 25 µM printed as substrate; read-out: IC50 reported by von Moltke et al. (2004); cited from earlier work.
Sequence of CYP2C9 (P11712 whole entry): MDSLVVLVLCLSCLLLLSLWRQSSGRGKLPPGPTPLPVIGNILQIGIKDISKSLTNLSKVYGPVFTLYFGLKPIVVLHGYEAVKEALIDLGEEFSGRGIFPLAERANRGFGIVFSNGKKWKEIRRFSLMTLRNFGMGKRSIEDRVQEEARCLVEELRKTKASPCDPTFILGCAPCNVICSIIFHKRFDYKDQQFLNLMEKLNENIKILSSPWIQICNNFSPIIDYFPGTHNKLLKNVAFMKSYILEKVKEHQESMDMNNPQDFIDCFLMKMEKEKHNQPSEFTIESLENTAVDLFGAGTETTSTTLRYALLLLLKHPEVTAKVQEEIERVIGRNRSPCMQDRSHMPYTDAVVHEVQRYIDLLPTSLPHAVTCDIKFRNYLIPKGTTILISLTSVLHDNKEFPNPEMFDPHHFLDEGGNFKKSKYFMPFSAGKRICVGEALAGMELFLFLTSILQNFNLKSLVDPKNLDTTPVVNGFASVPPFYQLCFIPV

The structures appear in SMILES notation.

A word on the Ki: it is the dissociation constant of the complex between target and ligand, obtained from inhibition or displacement. One may read the IC50 as the concentration needed to halve the response being measured.

Take `O=C1CC(c2cc(-c3c(O)ccc4c(=O)cc(-c5ccc(O)cc5)oc34)c(O)cc2O)Oc2cc(O)cc(O)c21` (stereo not drawn) [selamariscina A]: the Ki on CYP2C8 (HLMs, average ± standard error, triplicate) was 10 ± 3 nM. Further, the “Mode of Inhibition, CYP2C8 rosiglitazone” value at CYP2C8 (microsomes) was “Noncompetitive, partial”. Take `O=c1cc(-c2ccc(O)c(-c3c(O)cc(O)c4c(=O)cc(-c5ccc(O)cc5)oc34)c2)oc2cc(O)cc(O)c12` [amentoflavone]: at CYP2C9, the IC50 is 35 nM.

These data come from paper PMC7238120, “Strong and Selective Inhibitory Effects of the Biflavonoid Selamariscina A against CYP2C8 and CYP2C9 Enzyme Activities in Human Liver Microsomes” (Pharmaceutics, 2020).
